Patent publication US8834855B2, “Sunscreen compositions comprising carotenoids” (Promar AS, priority 2005, dated 2014)

Legend:
[1] = Effects of temperature on extraction for 200 minutes, water:ethanol:heptane 1:1:1, pH 11; assay type: physicochemical; conditions: for amount in phase after extraction: 1:1:1, pH 11
[2] = Phase distribution of carotenoids in water-ethanol/heptane extraction at different water levels; assay type: physicochemical; conditions: room temperature, no pH adjustment
Method: (§1) Extraction is performed in a nitrogen atmosphere in equipment covered with aluminium foil. • 1. The pH of a water suspension of the microalgae P. tricornutum (14 g dry weight per liter of water) was adjusted to 8.3 and ethanol was added to a final ratio of water:ethanol=0.3:1.0. • 2. The water-ethanol solution was extracted by mixing with heptane (water-ethanol solution:heptane=1.3:1.0) for 1 hour at 20° C. • 3. The solution was separated into three phases by centrifugation (10 minutes at 3222×g): An upper heptane phase enriched in diadinoxanthin and fucoxanthin, a lower ethanol-water phase enriched in chlorophylls and degradation products of chlorophylls, and a third mid-phase with precipitated materials. The ratio of the concentration of diadinoxanthin to fucoxanthin in the water-ethanol phase was approximately 1:6. • 4. Water was added to the water-ethanol phase until a water:ethanol ratio of 0.7:1.0 was reached. This solution was extracted by a similar amount of heptane and the phases separated by centrifugation (as in step 3). Diadinoxanthin was enriched in the heptane phase (diadinoxanthin:fucoxanthin=1:1), and fucoxanthin and fucoxanthin-derivatives in the ethanol-water phase. • 5. The heptane phase was stored overnight at −20° C. to separate fucoxanthin which was separated by centrifugation as described above. (Alternatively, the precipitated material may be removed with a pipette.) • 6. The heptane phase was used for further purification of diadinoxanthin by HPLC as described hereinbefore to yield […] of the diadinoxanthin found in the starting material. Optimization
Various parameters in the above described basic method were varied to establish the effect of water concentration, pH and temperature on the isolation method.
The method was performed at room temperature without pH adjustment.

[3] = Irradiation absorption in an in vitro skin model (Vitro-skin, integrating sphere transmission); conditions: Miglyol solvent, compared to a conventional SPF 60 sun lotion
Method: A commercial sunscreen SPF60 was used for comparison. Vitro−skin+miglyol was used as the control. Curve 1: Vitro−skin+Miglyol, 2: SPF60, 3:fucoxanthin at 2.76 mg/ml, 4:fucoxanthin at 0.55 mg/ml, 5:fucoxanthin at 0.25 mg/ml, 6:diadinoxanthin at 0.64 mg/ml, 7:diadinoxanthin at 0.13 mg/ml; and
The concentrations are given as the sum of the given compounds and their degradation products (cis-fucoxanthin and diadinochrome). Solid lines with squares—diadinoxanthin. Solid line with diamonds—fucoxanthin. Dashed lines illustrate a projected linear relationship.
The in vitro method of Springsteen was used (Springsteen et al., 1999, Analytica Chimica Acta, 380, p155-164). Vitro-skin was used as the skin simulator and Miglyol (Miglyol 812F Neutraloel CHG. 040906) was used as the solvent. The tests were performed with a Varian Cary 300 Conc UV-Visible Spectrophotometer (with an integrating sphere). Fucoxanthin and diadinoxanthin (isolated as described in Example 2) were tested at the concentrations indicated on FIG. 3.

[4] = Recovery of initial amount after extraction at different temperature and pH (stability); assay type: physicochemical
From the text: (§2) Values indicated are for the amount of each compound in the indicated phase. The value in brackets indicates the % distribution between the two phases.

[5] = Effects of temperature and pH on separation of diadinoxanthin from fucoxanthin (water:ethanol phase extracted with heptane); assay type: physicochemical
Method: as §1, §2

[6] = water:EtOH:heptane 0:1:1, heptane phase
[7] = water:EtOH:heptane 0:1:1, water-EtOH phase
[8] = water:EtOH:heptane 0.1:1:1, heptane phase
[9] = water:EtOH:heptane 0.1:1:1, water-EtOH phase
[10] = water:EtOH:heptane 0.2:1:1, heptane phase
[11] = water:EtOH:heptane 0.2:1:1, water-EtOH phase
[12] = water:EtOH:heptane 0.4:1:1, heptane phase
[13] = water:EtOH:heptane 0.4:1:1, water-EtOH phase
[14] = NaOH-buffer, pH 12.2, 50° C., Heptane phase
[15] = NaOH-buffer, pH 12.2, 50° C., Water-EtOH phase
[16] = Phosphate, pH 11, 20° C., Heptane phase
[17] = Phosphate, pH 11, 20° C., Water-EtOH phase
[18] = Phosphate, pH 11, 50° C., Heptane phase
[19] = Phosphate, pH 11, 50° C., Water-EtOH phase

Compound	amount in phase after extraction ([1]; 20 °C, Heptane phase)	amount in phase after extraction ([1]; 20 °C, Water-EtOH phase)	amount in phase after extraction ([1]; 35 °C, Heptane phase)	amount in phase after extraction ([1]; 35 °C, Water-EtOH phase)	amount in phase after extraction ([1]; 50 °C, Heptane phase)	amount in phase after extraction ([1]; 50 °C, Water-EtOH phase)	phase distribution [2, 6] [%]	phase distribution [2, 7] [%]	phase distribution [2, 8] [%]	phase distribution [2, 9] [%]	phase distribution [2, 10] [%]	phase distribution [2, 11] [%]	phase distribution [2, 12] [%]	phase distribution [2, 13] [%]	ability to absorb irradiation [3]	Total present in both phases ([4]; NaOH-buffer, pH 12.2, 50° C.)	Total present in both phases ([4]; Phosphate, pH 11, 20° C.)	Total present in both phases ([4]; Phosphate, pH 11, 50° C.)	% distribution between the two phases [5, 14]	amount of compound in phase [5, 14]	other results
C=Cc1c(C)c2cc3nc(c4c5[n-]c(cc6nc(cc1[n-]2)C(C)=C6CC)c(C)c5C(=O)[C@@H]4C(=O)OC)[C@@H](CCC(=O)OC/C=C(\C)CCC[C@H](C)CCC[C@H](C)CCCC(C)C)[C@@H]3C.[Mg+2] [Chl a, chlorophyll a]	3290	0	3505	0	4010	0	45	55	100	0	93	7	100	0							
CC(=O)O[C@H]1CC(C)(C)C(=C=C/C(C)=C/C=C/C(C)=C/C=C/C=C(C)/C=C/C=C(\C)C(=O)C[C@@]23O[C@]2(C)C[C@@H](O)CC3(C)C)[C@](C)(O)C1 [fucoxanthin]	1065	380	610	210	95	0	7	93	49	51	2	98	3	97	ability to absorb irradiation, particularly in the blue light range of the spectrum, but also in the upper UVA area	0	5120	2880	0 (0%)	0 (0%)	stability at various temperatures ([1]; 20, 35, 50 °C, pH 11): more sensitive to higher temperatures; stability under the temperature and pH conditions used ([4]; pH 11 to 12.2, 20 to 50° C.): more sensitive to extreme temperatures and pH; % distribution between the two phases [5, 15]: 0 (0%); amount of compound in phase [5, 15]: 0 (0%); % distribution between the two phases [5, 16]: 95%; amount of compound in phase [5, 16]: 4860; % distribution between the two phases [5, 17]: 5%; amount of compound in phase [5, 17]: 260; % distribution between the two phases [5, 18]: 95%; amount of compound in phase [5, 18]: 2745; % distribution between the two phases [5, 19]: 5%; amount of compound in phase [5, 19]: 135
CC1=C(C#C/C(C)=C/C=C/C(C)=C/C=C/C=C(C)/C=C/C=C(C)/C=C/[C@@]23O[C@]2(C)C[C@@H](O)CC3(C)C)C(C)(C)C[C@H](O)C1 [diadinoxanthin]	1155	170	1260	180	1310	190	12	88	93	7	6	94	22	78	ability to absorb irradiation, particularly in the blue light range of the spectrum, but also in the upper UVA area	1440	1500	1470	100%	1440	stability under the temperature and pH conditions used ([4]; pH 11): stable under the conditions used; % distribution between the two phases [5, 15]: 0 (0%); amount of compound in phase [5, 15]: 0 (0%); % distribution between the two phases [5, 16]: 100%; amount of compound in phase [5, 16]: 1500; % distribution between the two phases [5, 17]: 0 (0%); amount of compound in phase [5, 17]: 0 (0%); % distribution between the two phases [5, 18]: 100%; amount of compound in phase [5, 18]: 1470; % distribution between the two phases [5, 19]: 0 (0%); amount of compound in phase [5, 19]: 0 (0%)
